Laboratory results taken from publication PMC5049785, “Characterization of Novel Antimalarial Compound ACT-451840: Preclinical Assessment of Activity and Dose–Efficacy Modeling” (PLoS Medicine, 2016).

How the values were obtained:
[1] = system: Cam3.II^C580Y and Cam3.II^rev 0–3 h postinvasion rings; assay: Ring-stage survival assay (RSA0-3h); type: cell-based, P. falciparum; conditions: 6-h pulse, 35–700 nM, survival assessed 66 h later
Protocol: Ring-stage survival assays (RSA0-3h) were carried out at Columbia University Medical Center (New York, United States) as previously described. Parasite cultures were synchronized using 5% sorbitol (Sigma-Aldrich), and schizonts were incubated in RPMI-1640 containing 15 units/ml sodium heparin for 15 min at 37°C to disrupt agglutinated erythrocytes. These schizonts were concentrated over a gradient of 75% Percoll (Sigma-Aldrich), washed once in RPMI-1640, and incubated for 3 h with fresh erythrocytes to allow time for merozoite invasion. Cultures were then subjected again to sorbitol treatment to eliminate remaining schizonts. The 0–3 h postinvasion rings were adjusted to 1% parasitemia and 2% hematocrit in 1 mL volumes (in 48-well plates) and exposed to a range of ACT-451840 drug concentration (700–35 nM) or 0.1% DMSO for 6 h. Duplicate wells were established for each parasite line ± drug concentration. One-mL cultures were then transferred to 15-mL conical tubes, centrifuged at 800xg for 5 min to pellet the cells, and the supernatants carefully removed. As a washing step to remove drug, 10 mL culture medium were added to each tube, and the cells were resuspended, centrifuged, and the medium was aspirated. […] Stained parasites were detected using a BD Accuri 6 Flow Cytometer and analyzed using FlowJo Software. IC50 values were determined by nonlinear regression using GraphPad Prism 6.0. […]

[2] = system: P. falciparum clinical isolates (Papua, Indonesia); assay: Ex vivo drug susceptibility, P. falciparum clinical isolates; type: cell-based, Plasmodium falciparum; conditions: P. falciparum clinical isolates, n = 27 (closed symbols); read-out: median IC50
Protocol: […]. Thick blood films made from each well were stained with 5% Giemsa solution for 30 min and examined microscopically. The number of schizonts per 200 asexual-stage parasites was determined for each drug concentration and normalized to the control well.

[3] = system: P. falciparum strain 3D7 (MR4); assay: In vitro parasite reduction ratio (PRR) assay; type: cell-based, Plasmodium falciparum
Protocol: In vitro PRR testing was conducted at GSK (Tres Cantos, Madrid, Spain) as previously described. The assay used the limiting dilution technique to quantify the number of parasites that remained viable after drug treatment. […] Parasites were treated for 120 h. Drug in culture medium was renewed daily over the entire treatment period. […] To quantify the number of viable parasites after treatment, 3-fold serial dilutions were used with the above mentioned samples after removing the drug. Four independent serial dilutions were performed with each sample to correct experimental variations. The number of viable parasites was determined after 21 and 28 d by counting the number of wells with growth using [^3H]-hypoxanthine incorporation. The number of viable parasites was back-calculated by using the formula X^n-1 where n is the number of wells able to render growth and X the dilution factor (when n = 0, number of viable parasites is estimated as zero). […] The parasite clearance time to kill 99.9% of the initial population was determined using a regression calculated on the log-linear phase of the parasite reduction, taking into account the lag phase.

[4] = system: P. falciparum PfNF54^0230/N3; assay: In vivo efficacy, P. falciparum mouse model (GSK)
Protocol: In vivo efficacy against P. falciparum was conducted at GSK according to the standard assay previously described. Female NODscidIL2Rγnull mice were engrafted with human erythrocytes and infected with the isolate P. falciparum PfNF54^0230/N3, a strain developed at GSK for growth in engrafted mice. […] Blood samples were collected on Days 3, 4, 5, 6, and 7 (n = 3 per time point) for parasitemia measurement by flow cytometry. Similarly, blood samples were collected at 0.5, 1, 2, 4, 6, 8, 12, 24, and 48 h after a single administration of 4.7 mg/kg of ACT-451840 to a parallel group of three P. falciparum-infected mice for PK parameters determination. Results are expressed exclusively as antimalarial activity in the P. falciparum murine model.

[5] = system: P. falciparum NF54 male gametocytes; assay: P. falciparum dual gamete formation assay, male; type: cell-based, Plasmodium falciparum; conditions: 24 h incubation; ± SD; read-out: IC50 male gamete formation (exflagellation centers)
Protocol: Mature P. falciparum NF54 gametocytes were cultured at Imperial College London (London, United Kingdom), as previously described. […] Male gamete formation was quantified by computer-aided automated identification and counting of exflagellation centers. Female gamete formation was visualized by live immunofluorescence with a Cy3-conjugated antibody specific for Pfs25—a female gamete expressed surface protein. […] IC50 values were calculated using GraphPad Prism version 6 using the logarithmic versus normalized response (variable slope) function (Graphpad Software, San Diego, US).

P. berghei = conditions: ± coefficient of variation
Protocol: A single compartment PK model with saturable absorption was obtained using naïve pooling to fit simultaneously the observed blood concentration time data from the PK studies done at a dose of 10, 100, and 300 mg/kg, as described above. Using this model, blood concentration time profiles were predicted for all dosing regimens used in the mouse antimalarial efficacy studies. Cmax, AUC, and time above a threshold concentration were subsequently calculated using non-compartmental analysis. PD modeling was done using an Emax model using Cmax, AUC, or time above a threshold concentration versus survival or antimalarial activity. All modeling and PK analyses were done using Phoenix Winonlin 6.3 (Cetara, Princeton, US).

[6] = Safety pharmacology in rats; type: in vivo; conditions: rats dosed up to 1,000 mg/kg
[7] = Reverse mutation test in vitro
[8] = Chromosome aberration study in vitro

CC(=O)N1CCN(c2ccc(CN(C(=O)/C=C/c3ccc(C(C)(C)C)cc3)[C@@H](Cc3ccccc3)C(=O)N3CCN(Cc4ccc(C#N)cc4)CC3)cc2)CC1 [ACT-451840]
ring-stage survival rates, wild-type K13 allele versus C580Y mutation [1]: No difference in survival rates | IC50 [2]: 2.5 nM | lag phase in the killing curve ([3]; 10 x IC50): without lag phase | parasite clearance time to kill 99.9% of the initial population ([3]; 10 x IC50): 28 h | log PRR ([3]; 10 x IC50, decrease in viable parasites over 48 h): 4.4 | PRR ([3]; asexual blood stage forms): > 4 log per parasite cycle | total AUC in blood corresponding to the ED90 ([4]; P. falciparum mouse model, quadruple-dose regimen […], linearly extrapolated from single dose of 4.7 mg/kg): 227 ng·h/mL | effective dose resulting in 90% antimalarial activity (ED90) ([4]; oral quadruple-dose regimen, once a day): 3.7 mg/kg | IC50 [5]: 5.89 nM | Antimalarial activity EX50, X = AUC (P. berghei; Emax model): 8,100 (ng*h/mL) ± 35% | Antimalarial activity EX50, X = Cmax (P. berghei; Emax model): 930 (ng/mL) ± 36% | Antimalarial activity EX50, X = time above threshold (P. berghei; Emax model): 0.14 (h) ± 3,000% | Survival E0, model versus AUC (P. berghei; Emax model): 5.1 (day) ± 17% | Survival E0, model versus Cmax (P. berghei; Emax model): 4 (day) ± 54% | Survival E0, model versus time above threshold (P. berghei; Emax model): 5.9 (day) ± 12% | Survival EX50, X = AUC (P. berghei; Emax model): 170,000 (ng*h/mL) ± 16% | Survival EX50, X = Cmax (P. berghei; Emax model): 15,000 (ng/mL) ± 170% | Survival EX50, X = time above threshold (P. berghei; Emax model): 150 (h) ± 52% | Antimalarial activity Emax, model versus AUC (P. berghei): 110 (%) ± 8.3% | Antimalarial activity Emax, model versus Cmax (P. berghei): 130 (%) ± 11% | Antimalarial activity Emax, model versus time above threshold (P. berghei): 100 (%) ± 38% | Survival Emax, model versus AUC (P. berghei): 35 (day) ± 35% | Survival Emax, model versus Cmax (P. berghei): 62 (day) ± 120% | Survival Emax, model versus time above threshold (P. berghei): 70 (day) ± 71% | effects on central nervous and respiratory parameters [6]: no effects | genotoxicity, reverse mutation test [7]: not genotoxic | genotoxicity, chromosome aberration study [8]: not genotoxic
